Test results taken from article PMC5046141, “Discovery of Isoquinolinoquinazolinones as a Novel Class of Potent PPARγ Antagonists with Anti-adipogenic Effects” (Scientific Reports, 2016).

Assays:
[1] = system: 3T3-L1 preadipocytes; assay: Oil Red O staining assay of adipocyte differentiation; format: cell-based, mouse; details: for inhibition at 25 µM: Mus musculus, 3T3-L1, relative absorbance from Oil Red O staining at 25 μM, read-out: Inhibitory activity (%) on adipocyte differentiation
Experimental: The GW9662-mediated inhibition of PPARγ was confirmed using an Oil Red O staining assay to measure adipocyte differentiation. To investigate whether the novel compounds could inhibit adipocyte differentiation, 3T3-L1 preadipocytes were incubated with differentiation medium (MDI; insulin, dexamethasone, and isobutyl methyl xanthine) in the presence of increasing concentrations of isoquinolinoquinazolinones. Adipogenesis was analyzed using Oil Red O staining after treatment with the compounds.
The mouse preadipocyte cell line 3T3-L1 was maintained at 37 °C in humidified air with 5% CO2. 3T3-L1 cells were cultured in Dulbecco’s modified Eagle medium (DMEM; Life Technologies) supplemented with 10% bovine serum (BS; Gibco Invitrogen, Carlsbad, California, USA) as growth medium. For adipocyte differentiation, cells were cultured for 2 days to full confluence in a 24-well plate and the growth medium was then replaced (day 0) with DMEM supplemented with 10% fetal bovine serum (FBS, Gibco Invitrogen, Carlsbad, California, USA), 5 μg/mL insulin (Sigma, St. Louis, Missouri, USA), 0.5 mM 3-isobutyl-1-methylxanthine (Sigma), and 1 μM dexamethasone (Sigma). After 48 h, the differentiation medium was replaced (day 2) with DMEM + 10% FBS containing 5 μg/mL insulin, and the cells were allowed to accumulate lipid droplets until experimental use.
The accumulation of lipids signifying the formation of adipocytes was observed by staining the differentiated cells with Oil Red O. Following differentiation, cells were washed twice with phosphate-buffered saline (PBS), fixed with 10% formalin for 60 min. Oil Red O stock solution (0.5%) was prepared in isopropanol and filtered in cellulose nitrate filters. Cells were stained with Oil Red O diluted 6:4 in water for 1 h at room temperature. Excess Oil Red O dye was washed off twice with distilled water and then dried. The stained lipid droplets within cells were visualized using an optical microscope and photographed with a digital camera at 100× magnification.

[2] = biological target: T1, PPARγ2 (Mus musculus, UniProt P37238); assay: PPRE-Luc luciferase reporter assay of PPARγ2-induced transcriptional activity in 3T3-L1 cells; format: cell-based
T1 construct: expressed in transfected cells; host or cells: 3T3-L1 (mouse preadipocytes), pCS4 CMV vector
T1 sequence (P37238 1-505): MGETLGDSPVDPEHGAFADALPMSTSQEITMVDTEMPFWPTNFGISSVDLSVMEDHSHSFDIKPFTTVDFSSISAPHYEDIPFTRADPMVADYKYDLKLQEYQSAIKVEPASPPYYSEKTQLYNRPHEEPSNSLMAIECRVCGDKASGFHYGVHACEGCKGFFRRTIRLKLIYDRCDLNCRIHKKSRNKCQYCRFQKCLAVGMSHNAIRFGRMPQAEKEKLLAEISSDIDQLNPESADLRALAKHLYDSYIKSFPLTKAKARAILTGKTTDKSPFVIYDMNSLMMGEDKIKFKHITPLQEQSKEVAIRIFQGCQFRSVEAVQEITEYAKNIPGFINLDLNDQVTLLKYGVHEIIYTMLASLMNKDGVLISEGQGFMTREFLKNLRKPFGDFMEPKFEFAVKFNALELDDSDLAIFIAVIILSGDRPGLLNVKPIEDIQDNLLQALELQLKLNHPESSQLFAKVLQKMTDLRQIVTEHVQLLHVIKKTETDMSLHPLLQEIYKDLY
Experimental: To analyze whether isoquinolinoquinazolinones inhibit the transactivation of PPARγ, 3T3-L1 cells were cotransfected with full-length PPARγ2 expression vector with a peroxisome proliferator response element (PPRE)-driven luciferase reporter gene (PPRE-Luc) that has been reported to respond to PPARγ[23][24]. […] Titration curves were generated using Graph Pad Prism®, and the IC50 value of each compound with respect to PPARγ2-induced transcriptional activity was determined.
The transcription activity was determined in 3T3-L1 cells transiently co-transfected with PPRE-driven luciferase reporter gene (PPRE-Luc) and PPARγ2 expression vector. […] After 24 h of transfection, the cells were cultured with indicated combination for 12 h. Luciferase activity was measured after 36 h.
For plasmids expressing PPARγ2, full length PPARγ2 (mouse, 1518 bp: NCBI Reference Sequence: NP_035276.2) was subcloned into CMV promoter-derived mammalian expression vector (pCS4). Plasmids for C285G, R288G mutant PPARγ2 were generated by PCR-based site-directed mutagenesis and also subcloned into CMV promoter-derived mammalian expression vector (pCS4).
3T3-L1 cells were transfected for indicated combinations of expression plasmids along with a luciferase reporter plasmid (PPRE-Luc). PPRE-Luc contains the consensus PPAR responsive element (PPRE). pCMV-β-gal was co-transfected for normalization of transfection efficiency. 24 h after transfection, cells were treated with indicated compounds for 12 h. Luciferase activities were measured using a luciferase reporter assay kit (Promega, Madison, WI, USA). Experiments were performed in triplicate and repeated at least three times.

melting point [°C]	Compound	inhibition at 25 µM [1] [%]	other results
210 to 211.5	Cc1ccc2c(=O)n3c(cc2c1)-c1ccc(Cl)cc1NC3 [Compound 8e]	63.3	–
203.9 to 205.2	COc1ccc2c(=O)n3c(cc2c1)-c1cc(Cl)ccc1NC3 [Compound 8m]	28.1	–
–	COc1ccc2cc3[n+](cc2c1OC)CCc1cc2c(cc1-3)OCO2 [Berberine]	71.4	inhibition of PPARγ2 transfection (transcriptional activity), with rosiglitazone stimulation ([2]; 5 μM, with rosiglitazone): 40%; inhibition of PPARγ2 transfection (transcriptional activity), compound alone ([2]; 5 μM, without rosiglitazone): 33%; IC50 ([2]; 3T3-L1 cotransfected with PPARγ2 and PPRE-Luc, read-out: IC50 with respect to PPARγ2-induced transcriptional activity): 6.63 µM
–	Cc1cccc2c(=O)n3c(cc12)-c1ccccc1OC3 [Compound 10a]	23.6	–
–	Cc1cc2cc3n(c(=O)c2cc1C)COc1cc2c(cc1-3)OCO2 [Compound 10h]	38.8	–
213.6 to 215.1	COc1ccc2c(=O)n3c(cc2c1)-c1ccc(Cl)cc1NC3 [Compound 8l]	39.1	–
235.1 to 236.4	Cc1cc2cc3n(c(=O)c2cc1C)CNc1cc(Cl)ccc1-3 [Compound 8j]	53	–
–	CN(CCOc1ccc(CC2SC(=O)NC2=O)cc1)c1ccccn1 (stereo not shown) [Rosiglitazone]	–	increase of luciferase expression ([2]; rosiglitazone treatment, PPRE-Luc): up to 3 fold
226.5 to 228.1	Cc1cccc2c(=O)n3c(cc12)-c1ccccc1NC3 [Compound 8b]	49	–
119.1 to 120.4	Cc1ccc2c(=O)n3c(cc2c1)-c1ccccc1NC3 [Compound 8d]	53.9	–
–	Cc1cc2cc3n(c(=O)c2cc1C)COc1ccccc1-3 [Compound 10c]	60.4	–
204.3 to 206.3	O=c1c2ccccc2cc2n1CNc1ccccc1-2 [Compound 8a, 5H-Isoquinolino[2,3-c]quinazolin-8(6H)-one]	53	–
268.7 to 270.6	Cc1cc2cc3n(c(=O)c2cc1C)CNc1ccc(Cl)cc1-3 [Compound 8i]	49.8	–
240.5 to 242.1	Cc1cccc2c(=O)n3c(cc12)-c1cc(Cl)ccc1NC3 [Compound 8c]	30.9	–
–	Cc1ccc2c(=O)n3c(cc2c1)-c1ccccc1OC3 [Compound 10b]	25.7	–
202.6 to 205.1	Cc1ccc2cc3n(c(=O)c2c1)CNc1ccc(Cl)cc1-3 [Compound 8g]	42.4	–
213.2 to 214.5	Cc1ccc2cc3n(c(=O)c2c1)CNc1ccccc1-3 [Compound 8f]	28.6	–
–	COc1ccc2c(=O)n3c(cc2c1OC)-c1ccccc1OC3 [Compound 10d]	62.5	–
–	Cc1cccc2c(=O)n3c(cc12)-c1cc2c(cc1OC3)OCO2 [Compound 10e]	44.8	–
–	Cc1ccc2c(=O)n3c(cc2c1)-c1cc2c(cc1OC3)OCO2 [Compound 10f]	30.5	–
212.7 to 214.2	Cc1cc2cc3n(c(=O)c2cc1C)CNc1ccccc1-3 [Compound 8h]	41.6	–
–	6,8-Dihydro-5H-isoquinolino[2,3-c]quinazoline [Compound 9]	–	Inhibitory activity (%) on adipocyte differentiation ([1]; relative absorbance from Oil Red O staining at 25 μM): 62.5%
145.4 to 148	COc1ccc2c(=O)n3c(cc2c1)-c1ccccc1NC3 [Compound 8k]	56.1	–
–	Cc1ccc2cc3n(c(=O)c2c1)COc1cc2c(cc1-3)OCO2 [Compound 10g]	40.9	–
